Experimental data: ChEMBL document CHEMBL1153899, “Discovery of benzothiazole derivatives as efficacious and enterocyte-specific MTP inhibitors” (Bioorg Med Chem Lett, 2009)
Active and inactive are the calls of the source. The rule behind the calls is not given here.

How the values were obtained:
[1] = Inhibition of MTP from dog liver microsomes by scintillation counting; design: species or system Canis lupus familiaris, Microsome
Mus musculus [2] = experiment: Decrease in plasma triglyceride level in […] C57BL/6 mouse at 10 mg/kg, po daily for 3 days measured after 6 hrs; format: functional
HepG2 = experiment: Inhibition of apoB secretion in human HepG2 cells after 40 hrs by ELISA; format: functional, cell-based; conditions: HepG2, 40 h
Mus musculus [3] = experiment: Increase in peptide YY level in 3-day high fat diet fed C57BL/6 mouse at 10 mg/kg, po daily for 3 days; format: functional, organism-based; design: dose 10 mg/kg
Mus musculus [4] = experiment: Decrease in total food intake in 3-day high fat diet fed C57BL/6 mouse at 10 mg/kg, po daily for 3 days; format: functional
Mus musculus [5] = experiment: Decrease in body weight in […] at 10 mg/kg, po daily for 3 days; format: functional, C57BL/6

Compound | IC50 [1] | IC50 (HepG2) | Activity (Mus musculus [2]) | Activity (Mus musculus [3]) | Activity (Mus musculus [4]) | Activity (Mus musculus [5])
COc1cccc(C(=O)Nc2ccc3nc(C(=O)N[C@H](C(=O)N(C)Cc4ccc(F)cc4)c4ccccc4)sc3c2)c1-c1ccc(C(C)(C)C)cc1 | 7.9 nM | 2.4 nM | Active | Active | Active | Active
CN(Cc1ccccc1)C(=O)[C@@H](NC(=O)c1cc2cc(NC(=O)c3ccccc3-c3ccc(C(F)(F)F)cc3)ccc2n1C)c1ccccc1 [DIRLOTAPIDE] | 2 nM | 4 nM |  |  |  | 
Cc1csc2nc(-c3ccccc3C(=O)Nc3ccc4nc(C(=O)N[C@H](C(=O)N(C)Cc5ccc(F)cc5)c5ccccc5)sc4c3)cn12 | 16.9 nM | 6.9 nM | inactive | inactive | inactive | inactive
CN(Cc1ccc(F)cc1)C(=O)[C@@H](NC(=O)c1nc2ccc(NC(=O)c3ccccc3-c3cn4ccsc4n3)cc2s1)c1ccccc1 | 14.8 nM | 23.7 nM | inactive | inactive | inactive | inactive

Now from value to compound, other results behind:

IC50 [1] | IC50 (HepG2) | Compound | Activity (Mus musculus [2]) | Activity (Mus musculus [3]) | Activity (Mus musculus [4]) | Activity (Mus musculus [5])
 | 8.8 nM | CC(C)(C)c1ccc(-c2ccccc2C(=O)Nc2ccc3nc(C(=O)N[C@H](C(=O)N4CCC(F)(F)C4)c4ccccc4)sc3c2)cc1 |  |  |  | 
4.7 nM | 2.9 nM | Cc1cccc(C(=O)Nc2ccc3nc(C(=O)N[C@H](C(=O)N(C)Cc4ccc(F)cc4)c4ccccc4)sc3c2)c1-c1ccc(C(C)(C)C)cc1 | Active | Active | Active | Active
8.4 nM | 3.1 nM | CCCCCNC(=O)[C@@H](NC(=O)c1nc2ccc(NC(=O)c3ccccc3-c3ccc(C(C)(C)C)cc3)cc2s1)c1ccccc1 |  |  |  | 
2.6 nM | 1.5 nM | CC(C)(C)c1ccc(-c2ccccc2C(=O)Nc2ccc3nc(C(=O)N[C@H](C(=O)N4CCCC4)c4ccccc4)sc3c2)cc1 |  |  |  | 
